Source: patent US10195187B2, “Oxybutynin-xanomeline transdermal therapeutic system combinations” (Chase Pharmaceuticals Corporation, priority 2015, dated 2019)
Blank lines part the entries; values can stand above or below the molecule they belong to.

Key:
muscarinic receptors = conditions: oral and iontophoretic patch administration; cited from earlier work
[1] = McCrery and Appell 2006; cited from earlier work
Male Swiss mice [2] = assay: Antagonism of xanomeline-induced diarrhea in mice by oxybutynin (fecal pellet count); assay type: in vivo, mouse; conditions: oxybutynin i.p. 0.3 to 30 mg/kg, 30 min before xanomeline 30 mg/kg
Description: The total number of fecal pellets for each mouse was counted over time. An analysis of variance (ANOVA) was performed on the results. Fisher's Protected Least Significant Difference was used for pairwise comparisons; p values≤0.05 were considered significant. Grubbs' test (http (hypertext transfer protocol) www at graphpad.com/quickcalcs/Grubbs1.cfm) was used to detect outliers for each parameter in each experimental group. […] Mice were placed individually in cages without any bedding materials. During the experiment the number of fecal pellets was counted at different time-points as outlined below:
T0: administration of oxybutinin.
T30 min: administration of vehicle or xanomeline.
T 30 min to T 2.5 h: counting of accumulated fecal pellets excreted.
T+2.5 h to T+4.5 h: counting of accumulated fecal pellets excreted.
The total number of fecal pellets for each mouse was counted over time. An analysis of variance (ANOVA) was performed on the results. Fisher's Protected Least Significant Difference was used for pairwise comparisons. The p value≤0.05 were considered significant. Grubbs' test (http (hypertext transfer protocol) www at graphpad.com/quickcalcs/Gnibbs1.cfm) was used to detect outliers for each parameter in each experimental group.

Male Swiss mice [3] = assay: T-maze continuous alternation task (T-CAT) in mice; assay type: in vivo, mouse
Excerpt: Evaluation of Cognition with Oxybutynin and Xanomeline in the T-maze Alternation Task in Mice
The T-maze continuous alternation task (T-CAT) is useful as model for studying compounds with cognitive enhancing properties. The T-maze consists of 2 choice arms and 1 start arm mounted to a square center. Manual doors are provided to close specific arms during the force choice alternation task. Male Swiss mice (4-6 weeks old), N=10 per treatment group were used, and were pre-treated with:
Thirty minutes later mice were treated with either vehicle or one of 4 doses of xanomeline:
a dose that caused diarrhea.
Mice were randomly assigned to one of the different experimental treatment groups. Each animal was identified by its group name, cage number, series (day) of experiment, and number (1 to 10) written with permanent ink on the tail.
The T-maze apparatus is made of gray Plexiglas with a main stem (55 cm long×10 cm wide×20 cm high) and two arms (30 cm long×10 cm wide×20 cm high) positioned at 90 degree angle relative to the main stem. A start box (15 cm long×10 cm wide) is separated from the main stem by a guillotine door. Horizontal doors are also provided to close specific arms during the force choice alternation task. The experimental protocol consisted of one single session, which started with 1 “forced-choice” trial, followed by 14 “free-choice” trials. In the first “forced-choice” trial, animals were confined for 5 seconds to the start arm and then were released while either the left or the right goal arm was blocked by the horizontal door. Animals then negotiated the maze, eventually entering the open goal arm, and returned to the start position. […] The percentage of alternation over the 14 free-choice trials was determined for each mouse and was used as an index of working memory performance. […] The drug-induced improvement of memory was calculated by setting the respective response of the saline/vehicle as 100% and that of the test group as 0% reversion. […]

[4] = tested on: patients with Alzheimer disease; conditions: cited from earlier work
Male Swiss mice [5] = assay: Dose-response to xanomeline in a mouse model of diarrhea (fecal pellet count); assay type: in vivo; conditions: xanomeline i.p. 0.3 to 30 mg/kg
Excerpt: Study 1—Establishment of the Dose-Response to Xanomeline in a Mouse Model of Diarrhea.
Male Swiss mice (4-6 weeks old), N=10 per treatment group were used, and treated intra-peritoneally (i.p.) with either vehicle (vehicle group) or increasing doses of xanomeline, a representative muscarinic agonist. Mice were randomly assigned to one of two experimental groups (vehicle; or increasing doses of xanomeline). Each animal was identified by its group name, cage number, series (day) of experiment, and number (1 to 10) written with permanent ink on the tail. Mice were placed individually in cages without any bedding materials. During the experiment the number of fecal pellets were counted at different time-points, starting one hour before the time of the administration of the test compound (T0), as outlined below:
T−1 h to T0: counting of the accumulated fecal pellets excreted.
T0: administration of the test compound.
T0 to T+2 h: counting of the accumulated fecal pellets excreted.
T+2 h to T+4 h: counting of the accumulated fecal pellets excreted.
The total number of fecal pellets for each mouse was counted over time. An analysis of variance (ANOVA) was performed on the results. […] During the experiment the number of fecal pellets was counted at different time-points as outlined below: […]

SMILES: NC(=O)C(c1ccccc1)(c1ccccc1)[C@@H]1CCN(CCc2ccc3c(c2)CCO3)C1 [darifenacin]
effectiveness relative to other muscarinic antagonists in combination with muscarinic agonists (muscarinic receptors): less effective than the other muscarinic antagonists

SMILES: CCN(CC)CC#CCOC(=O)C(O)(c1ccccc1)C1CCCCC1 (stereo not shown) [oxybutynin, 4-diethylaminobut-2-ynyl 2-cyclohexyl-2-hydroxy-2-phenylethanoate]
crossing of the blood brain barrier [1]: able to cross the blood brain barrier | antagonism of xanomeline-induced diarrhea (fecal pellets) (Male Swiss mice [2]): dose-dependently antagonized the diarrhea induced by xanomeline | ability to perform the T-maze test after oxybutynin pretreatment (Male Swiss mice [3]; i.p. oxybutynin 30 min before xanomeline): restored the animals' ability to perform the T-maze test

diarrhea (number of fecal pellets excreted) (Male Swiss mice [5]): dose-dependently causes diarrhea
SMILES: CCCCCCOc1nsnc1C1=CCCN(C)C1 [xanomeline, 3-[4-(Hexyloxy)-1,2,5-thiadiazol-3-yl]-1,2,5,6-tetrahydro-1-methylpyridine]
cognitive and behavioral symptoms of Alzheimer disease compared to placebo ([4]; 6-month trial, Bodick et al, 1997): significantly improve cognitive and behavioral symptoms of Alzheimer disease | discontinuation rate ([4]; Alzheimer's patient population, Mirza et al. 2003): higher than 50% | side effects ([4]; patients with Alzheimer disease, Bodick et al, 1997): dose-dependent unacceptable side effects, including bradycardia, gastro-intestinal distress, excessive salivation, and sweating | ability to perform the T-maze test at the higher dose (Male Swiss mice [3]; i.p. xanomeline, higher dose (dose that caused diarrhea)): animals were too sick to perform the test | performance in the T-maze (percentage of alternation) (Male Swiss mice [3]; i.p. xanomeline, mice): dose-dependent increase in performance in the T-maze
